Laboratory results as given in ChEMBL document CHEMBL4049391, “Vicinal diaryl azole-based urea derivatives as potential cholesterol lowering agents acting through inhibition of SOAT enzymes” (Eur J Med Chem, 2017).

What was measured:
[1] = Inhibition of rat microsomal SOAT assessed as reduction in cholesteryl oleate formation from oleoyl co-enzyme A pretreated for 15 mins followed by oleoyl co-enzyme A addition after 10 mins by HPTLC method
[2] = system: Rattus norvegicus; assay: Anti-atherosclerosis activity in high cholesterol diet-induced Wistar rat atherogenesis model assessed as atherogenic index at 30 mg/kg, po administered once daily measured after 4 weeks (reference value: 19.59 +/- 5.8); assay type: functional
[3] = system: Rattus norvegicus; assay: Toxicity in Wistar rat assessed as cutaneous toxicity at 10 to 30 mg/kg, po administered once daily measured after 4 weeks; assay type: organism-based; details: in vivo, 672 h
[4] = system: Rattus norvegicus; assay: Acute toxicity in Wistar rat assessed as effect on skin color at 2000 mg/kg, po administered as single dose measured up to 14 days; assay type: organism-based; details: in vivo, 336 h
[5] = system: Rattus norvegicus; assay: Acute toxicity in Wistar rat assessed as macroscopic lesions in heart at 2000 mg/kg, po administered as single dose measured up to 14 days; assay type: organism-based; details: in vivo, 336 h
[6] = system: Rattus norvegicus; assay: Acute toxicity in Wistar rat assessed as change in body weight at 60 mg/kg, po administered as repeated dosing for 28 days; assay type: organism-based; details: in vivo, 672 h
[7] = system: Rattus norvegicus; assay: Acute toxicity in Wistar rat assessed as effect on mucus of lungs at 2000 mg/kg, po administered as single dose measured up to 14 days; assay type: organism-based; details: in vivo, 336 h
[8] = system: Rattus norvegicus; assay: Acute toxicity in Wistar rat assessed as changes in adrenal gland size at 2000 mg/kg, po administered as single dose measured up to 14 days; assay type: organism-based; details: in vivo, 336 h
[9] = system: Rattus norvegicus; assay: Acute toxicity in Wistar rat assessed as shrinkage of adrenal gland at 2000 mg/kg, po administered as single dose measured up to 14 days; assay type: organism-based; details: in vivo, 336 h
[10] = system: Rattus norvegicus; assay: Acute toxicity in Wistar rat assessed as cutaneous xanthomatosis at 60 mg/kg, po administered as repeated dosing for 42 days; assay type: organism-based; details: in vivo, 1008 h
[11] = system: Rattus norvegicus; assay: Acute toxicity in Wistar rat assessed as macroscopic lesions in lung at 2000 mg/kg, po administered as single dose measured up to 14 days; assay type: organism-based; details: in vivo, 336 h

`CCCCNC(=O)Nc1ccc(-c2sc(C)nc2-c2ccc(C)cc2)cc1` showed an IC50 [1] of 2430 nM, a pIC50 [1] of 5.614 and an Activity_index [2] of 1.82. For the same molecule, the Activity [3] was “Non-Toxic”, the Activity [4] was “Non-Toxic” and the Activity [5] was “Non-Toxic”. The Activity [6] was “Non-Toxic”, the Activity [7] was “Non-Toxic” and the Activity [8] was “Non-Toxic”. For the same molecule, the Activity [9] was “Non-Toxic”, the Activity [10] was “Non-Toxic” and the Activity [11] was “Non-Toxic”.
